The target in one experiment is T1, JAK1 (Homo sapiens, UniProt P23458).
T1 construct: endogenous in cells; host or cells: mixed Molt4/Ramos cell lysate (1:2)
The experiment in a line: Kinobeads assay with antibody detection, JAK1. The format is binding. The conditions noted are these: mixed Molt4/Ramos lysate, read-out: JAK1 inhibition value (IC50). As for the experimental part:
The compounds of the present invention as described in the previous examples were tested in a Kinobeads™ assay as described for ZAP-70 (WO-A 2007/137867). Briefly, test compounds (at various concentrations) and the affinity matrix with the immobilized aminopyrido-pyrimidine ligand 24 were added to cell lysate aliquots and allowed to bind to the proteins in the lysate sample. After the incubation time the beads with captured proteins were separated from the lysate. Bound proteins were then eluted and the presence of JAK1; JAK2, JAK3 and TYK2 was detected and quantified using specific antibodies in a dot blot procedure and the Odyssey infrared detection system. Dose response curves for individual kinases were generated and IC50 values calculated. Kinobeads™ assays for ZAP-70 (WO-A 2007/137867) and for kinase selectivity profiling (WO-A 2006/134056) have been previously described.
5×DP buffer: 250 mM Tris-HCl pH 7.4, 25% Glycerol, 7.5 mM MgCl2, 750 mM NaCl, 5 mM Na3VO4; filter the 5×DP buffer through a 0.22 μm filter and store in aliquot at −80° C. The 5×DP buffer is diluted with H2O to 1×DP buffer containing 1 mM DTT and 25 mM NaF.
Stock solutions of test compounds were prepared in DMSO. In a 96 well plate 30 μL solution of diluted test compounds at 5 mM in DMSO were prepared. Starting with this solution a 1:3 dilution series (9 steps) was prepared. For control experiments (no test compound) a buffer containing 2% DMSO was used.
Molt4 cells (ATCC catalogue number CRL-1582) and Ramos cells (ATCC catalogue number CRL-1596) were grown in 1 L Spinner flasks (Integra Biosciences, #182101) in suspension in RPMI 1640 medium (Invitrogen, #21875-034) supplemented with 10% Fetal Bovine Serum (Invitrogen) at a density between 0.15×10^6 and 1.2×10^6 cells/mL. Cells were harvested by centrifugation, washed once with 1×PBS buffer (Invitrogen, #14190-094) and cell pellets were frozen in liquid nitrogen and subsequently stored at −80° C. Cells were homogenized in a Potter S homogenizer in lysis buffer: 50 mM Tris-HCl, 0.8% NP40, 5% glycerol, 150 mM NaCl, 1.5 mM MgCl2, 25 mM NaF, 1 mM sodium vanadate, 1 mM DTT, pH 7.5. One complete EDTA-free tablet (protease inhibitor cocktail, Roche Diagnostics, 1873580) per 25 mL buffer was added. The material was dounced 10 times using a mechanized POTTER S, transferred to 50 mL falcon tubes, incubated for 30 minutes on ice and spun down for 10 minutes at 20,000 g at 4° C. (10,000 rpm in Sorvall SLA600, precooled). The supernatant was transferred to an ultracentrifuge (UZ)-polycarbonate tube (Beckmann, 355654) and spun for 1 hour at 100.000 g at 4° C. (33.500 rpm in Ti50.2, precooled). The supernatant was transferred again to a fresh 50 mL falcon tube, the protein concentration was determined by a Bradford assay (BioRad) and samples containing 50 mg of protein per aliquot were prepared. The samples were immediately used for experiments or frozen in liquid nitrogen and stored frozen at −80° C.
Cell lysate (approximately 50 mg protein per plate) was thawed in a water bath at room temperature and then stored on ice. To the thawed cell lysate 1×DP 0.8% NP40 buffer containing protease inhibitors (1 tablet for 25 mL buffer; EDTA-free protease inhibitor cocktail; Roche. Diagnostics 1873580) was added in order to reach a final protein concentration of 10 mg/mL total protein. The diluted cell lysate was stored on ice. Mixed Molt4Ramos lysate was prepared by combining one volume of Molt4 lysate and two volumes of Ramos lysate (ratio 1:2).
Plates were sealed and incubated for 3 hours in a cold room on a plate shaker (Heidolph tiramax 1000) at 750 rpm. Afterwards the plate was washed 3 times with 230 μL washing buffer (1×DP 0.4% NP40). The filter plate was placed on top of a collection plate (Greiner bio-one, PP-microplate 96 well V-shape, 65120) and the beads were then eluted with 20 μL of sample buffer (100 mM Tris, pH 7.4, 4% SDS, 0.00025% bromophenol blue, 20% glycerol, 50 mM DTT). […]

Experiment [1] relates to STAT5 phosphorylation in IL-2 stimulated YT cells. Kind of experiment: Cell assay with washout of compounds (pSTAT5, YT cells, MSD). The format is cell-based, human. The conditions noted are these: for IC50: Homo sapiens; for retention of activity after washing: up to 4 hours after washing. As for the experimental part:
This time course experiment allows determination as to whether the pharmacological effect of the tested compounds persists over time even after the compound is removed from the cell samples.
Human YT cells were grown as described above. Cells were harvested by centrifugation and resuspended in RPMI0.5% heat-inactivated FBS. 3×10^5 cells were seeded in 60 μl per well in a round-bottomed 96 well plate (BD-Falcon, 353077).
Test compounds were dissolved in DMSO and a 1:3 dilution series (9 steps) was prepared. To generate a dose response curve, 30 μl of fourfold concentrated compound in 4% DMSO/RPMI/0.5% FBS were added to each cell sample in the 96 well plate resulting in a final DMSO concentration of 1% DMSO. Cells were incubated for one hour in a humidified incubator (37° C., 5% CO2). After incubation cells were washed twice by centrifugation and replacement of media (RPMI/0.5% FBS), with the exception of the time 0 plate. Washed cells were incubated for 30 min, 1, 2 and 4 hours in a humidified incubator (37° C., 5% CO2) prior to stimulation with IL-2. To each well 30 μl of a fourfold concentrated IL-2 solution (Recombinant human IL-2, Peprotech 200-02; 120 nM solution in RPMI) was added and incubated for 30 minutes at room temperature. Cells were lysed by adding 30 μl of 5× lysis buffer (MSD lysis buffer) and incubated for 10 minutes at 4° C. with gentle shaking.
The effect of compounds on STATS phosphorylation was determined in lysates using the MSD MULTI-SPOT® 96 4-spot phosphor-STAT5a,b whole cell lysatc kit (MesoScale Discovery, K150IGD-3) according to the manufacturer's protocol. Data were analysed in BioAssay using the nonlinear regression for a sigmoidal dose-response with a variable slope and IC50 values were determined.

The mark [2] stands for this setting: 0.5 h, read-out: pSTAT5 inhibition pIC50, 30 min after washout, IL-2 stimulated YT cells, 30 min after washout (converted).
The mark [3] stands for this setting: 2 h, read-out: pSTAT5 inhibition pIC50, 2 hours after washout, IL-2 stimulated YT cells, 2 hours after washout (converted).
Where [4] appears, read: 4 h, IL-2 stimulated YT cells, 4 hours after washout, read-out: pSTAT5 inhibition pIC50, 4 hours after washout (converted).

For orientation: pIC50 means the negative decadic logarithm of the IC50, by convention in mol/L.

pIC50: −log10 of the molar value. Like-named read-outs stand apart in the source and are kept apart here.

T1 sequence (P23458 whole entry): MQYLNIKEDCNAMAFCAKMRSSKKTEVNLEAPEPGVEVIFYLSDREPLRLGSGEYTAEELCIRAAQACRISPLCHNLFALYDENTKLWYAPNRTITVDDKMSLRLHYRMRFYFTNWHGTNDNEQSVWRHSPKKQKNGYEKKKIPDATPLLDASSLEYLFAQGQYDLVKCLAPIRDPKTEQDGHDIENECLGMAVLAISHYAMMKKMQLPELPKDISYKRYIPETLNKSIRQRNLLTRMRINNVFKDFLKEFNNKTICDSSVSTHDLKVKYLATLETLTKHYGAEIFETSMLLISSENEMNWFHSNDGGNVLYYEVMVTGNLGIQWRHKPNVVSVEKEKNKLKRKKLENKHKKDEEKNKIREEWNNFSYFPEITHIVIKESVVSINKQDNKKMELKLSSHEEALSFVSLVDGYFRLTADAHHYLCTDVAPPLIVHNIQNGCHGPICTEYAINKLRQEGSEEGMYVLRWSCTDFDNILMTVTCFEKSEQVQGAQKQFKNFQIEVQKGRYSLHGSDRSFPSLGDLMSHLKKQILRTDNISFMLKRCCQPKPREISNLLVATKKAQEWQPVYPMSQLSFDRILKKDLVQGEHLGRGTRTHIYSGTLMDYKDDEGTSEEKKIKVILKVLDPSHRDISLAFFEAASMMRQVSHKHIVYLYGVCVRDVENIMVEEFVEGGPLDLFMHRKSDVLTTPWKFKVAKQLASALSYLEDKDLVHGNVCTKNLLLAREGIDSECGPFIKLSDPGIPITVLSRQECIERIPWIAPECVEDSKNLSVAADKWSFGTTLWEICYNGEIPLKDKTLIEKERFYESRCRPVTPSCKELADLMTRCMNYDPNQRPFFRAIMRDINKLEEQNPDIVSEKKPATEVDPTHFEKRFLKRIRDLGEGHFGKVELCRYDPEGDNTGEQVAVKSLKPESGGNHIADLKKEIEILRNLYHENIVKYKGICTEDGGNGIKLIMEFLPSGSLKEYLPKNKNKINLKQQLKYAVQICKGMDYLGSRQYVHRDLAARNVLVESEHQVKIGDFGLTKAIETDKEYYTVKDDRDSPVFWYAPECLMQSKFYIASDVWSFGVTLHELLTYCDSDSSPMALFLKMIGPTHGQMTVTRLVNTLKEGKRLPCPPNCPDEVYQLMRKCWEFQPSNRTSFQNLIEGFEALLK

As to `C=CC(=O)Nc1cccc(Cn2ncc3cnc(Nc4cnn(C)c4)nc32)c1` [Example 1, N-(3-((6-((1-Methyl-1H-pyrazol-4-yl)amino)-1H-pyrazolo[3,4-d]pyrimidin-1-yl)methyl)phenyl)acrylamide], at JAK1, the negative-log IC50 (pIC50) is less than 5.00. Besides, the figures for the IC50 in experiment [1] (setting [2]), in experiment [1] (setting [3]) and in experiment [1] (setting [4]) were 200 nM, 63.1 nM and 100 nM, respectively. The “retention of activity after washing” value in experiment [1] (YT cells) was “retain activity for up to 4 hours after washing with some drop in activity”.
Consider `C=CC(=O)Nc1cc(Cn2ncc3cnc(Nc4cnn(C)c4)nc32)ccc1F` [Example 2, […]], for which the pIC50 on JAK1 was less than 5.00.
For `C#CC(=O)Nc1cccc(Cn2ncc3cnc(Nc4cnn(C)c4)nc32)c1` [Example 3, N-(3-((6-((1-Methyl-1H-pyrazol-4-yl)amino)-1H-pyrazolo[3,4-d]pyrimidin-1-yl)methyl)phenyl)propiolamide], the pIC50 at JAK1 was less than 5.00. Further, the IC50 in experiment [1] (setting [2]) is 631 nM; in experiment [1] (setting [3]), 79.4 nM; in experiment [1] (setting [4]), 126 nM. The “retention of activity after washing” value in experiment [1] (YT cells) was “retain activity for up to 4 hours after washing with some drop in activity”.
In the case of `C=CS(=O)(=O)Nc1cccc(Cn2ncc3cnc(Nc4cnn(C)c4)nc32)c1` [Example 4, N-(3-((6-((1-Methyl-1H-pyrazol-4-yl)amino)-1H-pyrazolo[3,4-d]pyrimidin-1-yl)methyl)phenyl)ethenesulfonamide], at JAK1, the pIC50 is less than 5.00.
For the compound `C=C(C)C(=O)Nc1cccc(Cn2ncc3cnc(Nc4cnn(C)c4)nc32)c1` [Example 5, N-(3-((6-((1-Methyl-1H-pyrazol-4-yl)amino)-1H-pyrazolo[3,4-d]pyrimidin-1-yl)methyl)phenyl)methacrylamide], at JAK1, the pIC50 is less than 5.00.
Same read-out and setting: to `C=CS(=O)(=O)Nc1cccc(Cn2ccc3cnc(Nc4cnn(C)c4)nc32)c1` [Example 7, N-(3-((2-((1-Methyl-1H-pyrazol-4-yl)amino)-7H-pyrrolo[2,3-d]pyrimidin-7-yl)methyl)phenyl)ethenesulfonamide] belongs 5.11.
For `CC(=O)Nc1cccc(Cn2ncc3cnc(Nc4cnn(C)c4)nc32)c1` [compound 2, N-(3-((6-((1-methyl-1H-pyrazol-4-yl)amino)-1H-pyrazolo[3,4-d]pyrimidin-1-yl)methyl)phenyl)acetamide, reference compound], on JAK1, the negative logarithm of the IC50 (pIC50) was less than 5.00. In addition, the “activity 30 minutes after the washing of cells” value in experiment [1] (YT cells, 30 minutes after washing) is reported as “completely lost”.

These data come from patent publication US20140323504A1, “Pyrazolo[4,3-c]Pyridine Derivatives As Kinase Inhibitors” (Cellzome Limited, priority 2011, published 2014).
